{"source": "patent US20220087983A1", "about": "“ACTIVATING PYRUVATE KINASE R” (FORMA Therapeutics, Inc., priority 2020, published 2022)", "key": {"[1]": {"target": "T1, CYP2C19 (Homo sapiens, UniProt P33261)", "T1 construct": "from tissue; host or cells: human liver microsomes", "T1 sequence (P33261 whole entry)": "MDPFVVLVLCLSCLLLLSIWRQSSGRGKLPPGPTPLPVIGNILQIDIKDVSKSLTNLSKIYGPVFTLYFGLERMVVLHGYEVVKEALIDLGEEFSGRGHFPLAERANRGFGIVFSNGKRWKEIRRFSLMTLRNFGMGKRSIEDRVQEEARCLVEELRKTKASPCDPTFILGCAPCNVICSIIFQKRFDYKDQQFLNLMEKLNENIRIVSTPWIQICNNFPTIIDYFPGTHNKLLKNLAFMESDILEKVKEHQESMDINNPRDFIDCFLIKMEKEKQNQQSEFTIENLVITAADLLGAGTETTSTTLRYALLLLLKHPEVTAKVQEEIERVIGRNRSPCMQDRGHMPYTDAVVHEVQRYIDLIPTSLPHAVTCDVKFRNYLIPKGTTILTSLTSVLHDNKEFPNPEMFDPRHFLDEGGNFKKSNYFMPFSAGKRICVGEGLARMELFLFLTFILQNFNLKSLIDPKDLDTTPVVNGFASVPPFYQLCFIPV", "assay": "Single substrate DDI assay, reversible CYP inhibition in human liver microsomes", "assay_type": "in vitro ADME"}, "[2]": {"assay": "Phase 1: plasma pharmacokinetics in SCD patients", "assay_type": "in vivo", "settings": "human, oral, SCD (N = 5), single dose 700 mg", "source_text": "This is a first-in-human (FIH), Phase 1 study of Compound 1 that will characterize the safety, PK, and PD of Compound 1 after a single dose and after repeated dosing first in healthy adult volunteers and then in adolescents or adults with sickle cell disease. Initially, a dose range of Compound 1 in single ascending dose (SAD) escalation cohorts will be explored in healthy subjects. Enrollment of healthy subjects into 2-week multiple ascending dose (MAD) escalation cohorts will be initiated once the safety and PK from at least two SAD cohorts is available to inform the doses for the 2-week MAD portion of the study. The MAD cohorts will then run in parallel to the single dose cohorts. A single dose cohort is planned to understand food effects (FE) on the PK of Compound 1. […] Multiple dose studies in SCD subjects will then be initiated upon completion of MAD studies in healthy volunteers. Compound 1 will be administered in 25 mg and 100 mg tablets delivered orally, prepared as described in Example 1, Step 7.\n(§1) In this study, SAD/MAD cohorts are randomized (3 to 1) to receive Compound 1 or placebo (P). Compound 1 was evaluated first in 4 healthy SAD cohorts and 4 healthy MAD (14-day dosing period) cohorts. Based on the safety, and PK/PD profile from HS, Compound 1 is then evaluated in 1 SCD SAD cohort and 2 SCD MAD cohorts. Specifically, based on the safety and pharmacokinetic/pharmacodynamics (PK/PD) profile in healthy volunteer studies, Compound 1 is evaluated in patients (pts) with SCD, first in a single dose (SD or SAD) cohort and then in multiple-dose (MD or MAD) cohorts (14-day and 12-week). Safety assessments include AEs, vital signs, ECGs and laboratory parameters. PK/PD blood sampling was performed on Day 1 (SAD/MAD) and Day 14 (MAD) and up to 72 h after the last dose and at the end-of-study visit. PD parameters included 2,3-DPG, ATP, and p50 in all cohorts with additional PD studies (including oxygen scan) performed only in the SCD cohorts. PD parameters included 2,3-DPG, ATP, p50, RBC deformability with controlled deoxygenation and reoxygenation (Lorrca® oxygen scan) and varying osmolality (Lorrca® osmoscan)). To maintain study blind, pt identifiers were removed when needed.\nA potential exposure to the maximum PD response dose range to evaluate in patients with SCD was identified. Based on the safety and PK/PD profile in healthy volunteer studies, a 700 mg single dose was evaluated in patients with SCD (n=7). A single 700 mg dose of Compound 1 was selected to evaluate in patients with SCD to enable daily dosing cohorts at lower exposures.\nIn the SCD single dose cohort, seven patients received either Compound 1 (n=5) or placebo (n=2)."}, "[3]": {"assay": "Phase 1: safety, adverse events in SCD patients", "assay_type": "in vivo, human", "protocol": "All SCD patients who received a single 700 mg dose of Compound 1 or placebo were monitored for adverse events for 7 days. The incidence of treatment emergent adverse events (TEAEs) in SCD patients receiving Compound 1 (700 mg) or placebo are reported in Table 23. Six TEAEs were reported in 4 patients; all TEAEs were grade 1 and transient. Specifically, six TEAEs were reported in 4 of 7 (57%) patients, including 3 TEAEs (arthralgia, headache, palpitations) in 2 of 5 (40%) pts receiving Compound 1 and 3 TEAEs (back pain, myalgia, pruritis) in 2 of 2 (100%) pts receiving placebo; all TEAEs were grade 1 and transient. […] One possibly related TEAE (palpitations) occurred about 8 hours post dose. No other symptoms were observed, and the palpitations resolved in <1 minute. […] The single 700 mg dose of Compound 1 was considered tolerable, and the first multiple dose SCD cohort was initiated.\nBased on data from the MAD1 (300 mg once daily for 14 days), Compound 1 is well-tolerated in patients with SCD. In all, eighteen TEAEs were reported in 7 of 9 patients in the MAD1 (300 mg once daily) cohort (N=9). These included (a) eight Grade 1 TEAEs, including 3 patients c/o headache, 1 each of nausea, constipation, somnolence, increased LDH and increased AST, of which two AEs considered to be possibly related to study treatment were reported by one patient each (1 AE of headache and 1 AE of nausea); (b) six Grade 2 TEAEs, including 3 uncomplicated sickle pain events (in 2 patients), 1 patient with N/V and 1 increased reticulocytes, of which no AEs were considered related to study treatment, all AEs of pain events were considered unrelated and consistent with each patient's SCD pain history, and all AEs were treated with patient's standard home pain medications (no SAE/no hospitalization); and (c) one Grade 4 TEAE of elevated creatine kinase, unrelated to study treatment. Non-treatment-related AEs were consistent with events experienced in this patient population. No treatment-related serious AEs were reported."}, "[4]": {"target": "T2, CYP3A4 (Homo sapiens, UniProt P08684)", "T2 construct": "from tissue; host or cells: human liver microsomes", "T2 sequence (P08684 whole entry)": "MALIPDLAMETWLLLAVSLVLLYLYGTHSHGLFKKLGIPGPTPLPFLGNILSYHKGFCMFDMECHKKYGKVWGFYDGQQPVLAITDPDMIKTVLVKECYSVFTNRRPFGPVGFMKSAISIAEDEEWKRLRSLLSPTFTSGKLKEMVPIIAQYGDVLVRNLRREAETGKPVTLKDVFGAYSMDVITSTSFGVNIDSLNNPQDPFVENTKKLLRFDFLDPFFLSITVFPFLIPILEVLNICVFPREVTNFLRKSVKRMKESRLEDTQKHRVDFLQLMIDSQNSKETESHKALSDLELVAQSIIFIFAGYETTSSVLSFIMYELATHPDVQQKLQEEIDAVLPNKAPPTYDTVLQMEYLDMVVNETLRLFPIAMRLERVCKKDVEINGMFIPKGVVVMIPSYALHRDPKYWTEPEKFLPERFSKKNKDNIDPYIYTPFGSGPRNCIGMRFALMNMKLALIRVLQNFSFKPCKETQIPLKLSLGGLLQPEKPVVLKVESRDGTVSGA", "assay": "Single substrate DDI assay, reversible CYP inhibition in human liver microsomes", "assay_type": "in vitro ADME"}, "[5]": {"tested_on": "2,3-DPG blood levels", "assay": "Phase 1: blood 2,3-DPG levels in SCD patients", "assay_type": "in vivo, human", "protocol": "as §1, with “PD parameters included 2,3-DPG, ATP, p50, RBC deformability with controlled deoxygenation and reoxygenation (Lorrca® oxygen scan) and varying osmolality (Lorrca® osmoscan)). To maintain study blind, pt identifiers were removed when needed.” left out\nThe following table reports the mean percentage change in 2,3-DPG blood levels, relative to baseline, measured over time in SCD patients after a single dose of Compound 1 (700 mg):\nThe following table reports the mean percentage change in 2,3-DPG blood levels, relative to baseline, measured over time after the first dose on days 1 and 14 in SCD patients who received daily doses of Compound 1 (300 mg QD) for 14 days: […]"}, "[6]": {"tested_on": "CYP1A2", "assay": "CYP mRNA induction in cultured human hepatocytes", "assay_type": "in vitro ADME", "settings": "donors AIH, EUJ, HC5-40 individually"}, "[7]": {"assay": "Solubility in water or buffered solutions", "assay_type": "physicochemical", "settings": "aqueous buffer, pH about 1.07 to about 8.69"}, "[8]": {"target": "T3, CYP2C9 (Homo sapiens, UniProt P11712)", "T3 construct": "from tissue; host or cells: human liver microsomes", "T3 sequence (P11712 whole entry)": "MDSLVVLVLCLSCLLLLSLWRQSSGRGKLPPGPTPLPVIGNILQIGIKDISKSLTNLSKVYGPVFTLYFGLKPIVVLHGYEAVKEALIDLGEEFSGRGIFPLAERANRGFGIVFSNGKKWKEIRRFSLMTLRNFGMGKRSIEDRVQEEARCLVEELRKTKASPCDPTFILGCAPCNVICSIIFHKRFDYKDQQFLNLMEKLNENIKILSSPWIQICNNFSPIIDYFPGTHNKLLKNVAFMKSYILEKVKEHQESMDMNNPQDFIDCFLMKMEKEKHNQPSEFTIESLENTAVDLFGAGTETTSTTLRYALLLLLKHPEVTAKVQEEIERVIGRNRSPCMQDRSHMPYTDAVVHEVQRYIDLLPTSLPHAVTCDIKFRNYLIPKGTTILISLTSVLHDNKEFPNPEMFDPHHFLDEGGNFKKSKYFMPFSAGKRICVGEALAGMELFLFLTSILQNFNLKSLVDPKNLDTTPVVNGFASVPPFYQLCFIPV", "assay": "Single substrate DDI assay, reversible CYP inhibition in human liver microsomes", "assay_type": "in vitro ADME"}, "[9]": {"settings": "SCD MAD1, 300 mg × 14 days, n = 7"}}, "note": "Several values for one entry are separate records, joined by “and”; a condition that tells them apart may be missing. Identical values can stand only once.", "data": [{"smiles": "O=C([C@H](CO)c1ccccc1)N1CC2=C(C1)CN(S(=O)(=O)c1cnc3c(c1)OCCO3)C2", "note": "(single isomer, unassigned) [Compound 1]", "values": [{"measurement": "IC50", "setting": "[1]", "result": "> 30", "unit": "µM"}, {"measurement": "AUC(0-inf)", "setting": "[2]; geometric mean (geometric CV)", "result": 7300, "unit": "ng·h/mL"}, {"measurement": "Cmax", "setting": "[2]; geometric mean (geometric CV)", "result": 2580, "unit": "ng/mL"}, {"measurement": "half-life", "setting": "[2]; geometric mean (geometric CV)", "result": 14.9, "unit": "h"}, {"measurement": "Tmax", "setting": "[2]; median [min, max]", "result": 2, "unit": "h"}, {"measurement": "Any serious adverse event (SAE), n (%)", "setting": "[3]; [9]", "result": "0 n (%)"}, {"measurement": "TEAE related to study drug, n (%)", "setting": "[3]; [9]", "result": "2 (29%) n (%)"}, {"measurement": "serious adverse events or TEAEs leading to withdrawal", "setting": "[3]; SCD single dose cohort", "result": "No serious adverse events (SAEs) or TEAEs leading to pt withdrawal"}, {"measurement": "Any TEAE, n (%)", "setting": "[3]; SCD, single dose 700 mg, N = 5", "result": "2 (40) n (%)"}, {"measurement": "TEAE related to study drug, n (%)", "setting": "[3]; SCD, single dose 700 mg, N = 5", "result": "1 (20) n (%)"}, {"measurement": "IC50", "setting": "[4]", "result": "> 30", "unit": "µM"}, {"measurement": "Mean percentage change in 2,3-DPG blood levels", "setting": "[5]; SCD patients, single dose 700 mg, 0 h after dose", "result": "−0", "unit": "%"}, {"measurement": "lag of maximum 2,3-DPG decrease behind maximum plasma concentration", "setting": "[5]; SCD, single 700 mg dose (FIG. 54B)", "result": "about 24 hours"}, {"measurement": "mRNA Fold Induction CYP1A2", "setting": "[6]; 0.033 μM", "result": "1.07 fold and 0.989 fold and 1.23 fold"}, {"measurement": "mRNA Fold Induction CYP1A2", "setting": "[6]; 0.1 μM", "result": "0.942 fold and 0.958 fold and 1.05 fold"}, {"measurement": "mRNA Fold Induction CYP1A2", "setting": "[6]; 0.33 μM", "result": "0.887 fold and 1.10 fold and 1.20 fold"}, {"measurement": "mRNA Fold Induction CYP1A2", "setting": "[6]; 1 μM", "result": "0.911 fold and 1.20 fold and 1.14 fold"}, {"measurement": "mRNA Fold Induction CYP1A2", "setting": "[6]; 3.3 μM", "result": "0.892 fold and 1.24 fold and 1.11 fold"}, {"measurement": "mRNA Fold Induction CYP1A2", "setting": "[6]; 10 μM", "result": "1.02 fold and 1.33 fold and 1.25 fold"}, {"measurement": "solubility", "setting": "[7]", "result": "22 to 25", "unit": "µg/mL"}, {"measurement": "IC50", "setting": "[8]", "result": "> 30", "unit": "µM"}]}]}
